Data published in patent US20240293413A1, “COMPOUND AND METHOD FOR TREATING CHEMOTHERAPY-RELATED GASTROINTESTINAL SIDE EFFECTS” (ONQUALITY PHARMACEUTICALS CHINA LTD., priority 2021, published 2024).

Tests used:
Format in all cases: in vivo
[1] = system: Chemotherapeutic agent-caused diarrhea models of Balb/c mice; experiment: Examples 1-229 (Table 3): oral CDK inhibitor, relief of diarrhea caused by a chemotherapeutic agent;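 also: percent of treated mice whose diarrhea grade fell below chemotherapy-group average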
[2] = system: diarrhea caused by a chemotherapeutic agent in Balb/c mice; experiment: Examples 343-381 (Table 6): oral versus intravenous CDK inhibitor, relief of diarrhea caused by a chemotherapeutic agent;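 also: percent of treated mice whose diarrhea grade fell below chemotherapy-group average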
How it was run: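 Balb/c mice (10 per group) received the CDK inhibitor orally or by tail-vein injection, or vehicle, followed by a chemotherapeutic agent or its solvent. Diarrhea grade was scored daily.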

[3] = system: diarrhea caused by a chemotherapeutic agent in Balb/c mice; experiment: Examples 382-405 (Table 7): various administration modes of the CDK inhibitor, relief of diarrhea caused by a chemotherapeutic agent; conditions: cycle 8 days
Text: Balb/c mice were fed for 1 week, and then divided into groups. The experiment was divided into a control group, a chemotherapeutic agent group, CDK inhibitor groups (including an oral administration group of a CDK inhibitor, an intraperitoneal injection group of a CDK inhibitor, an intramuscular injection group of a CDK inhibitor, a local administration group of a CDK inhibitor), each of which comprised 10 mice, to perform the administration experiment, for which the administration dosage, mode, time and frequency were shown in Table 7. The control group: being administered with the same solvent as that used in the CDK inhibitor group (the time and mode were shown in Table 7), and then being injected/intragastrically administered with the same solvent as that used in the chemotherapeutic agent group (the administration mode was shown in Table 7): the chemotherapeutic agent group: being administered with the same solvent as that used in the CDK inhibitor group (the time and mode were shown in Table 7), and then being injected/intragastrically administered with the chemotherapeutic agent (the type, administration mode and dosage were shown in Table 7): the oral administration group of the CDK inhibitor: being intragastrically administered with the CDK inhibitor (the time was shown in Table 7), and then being administered with the chemotherapeutic agent (the mode and dosage were shown in Table 7): the intraperitoneal injection group of the CDK inhibitor: being intraperitoneally injected with the CDK inhibitor (the time was shown in Table 7), and then being administered with the chemotherapeutic agent (the mode and dosage were shown in Table 7): the intramuscular injection group of the CDK inhibitor: being intramuscularly injected with the CDK inhibitor (the time was shown in Table 7), and then being administered with the chemotherapeutic agent (the mode and dosage were shown in Table 7); and the local administration group of the CDK inhibitor: the hair on the abdomen of mice was shaved (about 2 cm*2 cm), being applied with the CDK inhibitor (the time was shown in Table 7), and then being administered with the chemotherapeutic agent (the mode and dosage were shown in Table 7).
The diarrhea grading of mice was observed and recorded every day.

CC(=O)c1c(C)c2cnc(Nc3ccc(N4CCNCC4)cn3)nc2n(C2CCCC2)c1=O [Palbociclib]
Relative remission rate (%) ([1]; Example 1, Fluorouracil (5-Fu) intraperitoneal injection 125 mg/kg single, CDK inhibitor oral 150 mg/kg single 0.5 h before, cycle 10 days): 20%
Relative remission rate (%) ([1]; Example 2, Fluorouracil (5-Fu) intraperitoneal injection 125 mg/kg single, CDK inhibitor oral 150 mg/kg single 1 h before, cycle 10 days): 20%
Relative remission rate (%) ([1]; Example 3, Fluorouracil (5-Fu) intraperitoneal injection 125 mg/kg single, CDK inhibitor oral 150 mg/kg single 2 h before, cycle 10 days): 30%
Relative remission rate (%) ([1]; Example 4, Fluorouracil (5-Fu) intraperitoneal injection 125 mg/kg single, CDK inhibitor oral 150 mg/kg single 3 h before, cycle 10 days): 40%
Relative remission rate (%) ([1]; Example 5, Fluorouracil (5-Fu) intraperitoneal injection 125 mg/kg single, CDK inhibitor oral 150 mg/kg single 4 h before, cycle 10 days): 40%
Relative remission rate (%) ([1]; Example 6, Fluorouracil (5-Fu) intraperitoneal injection 125 mg/kg single, CDK inhibitor oral 150 mg/kg single 5 h before, cycle 10 days): 50%
Relative remission rate (%) ([1]; Example 7, Fluorouracil (5-Fu) intraperitoneal injection 125 mg/kg single, CDK inhibitor oral 150 mg/kg single 6 h before, cycle 10 days): 50%
Relative remission rate (%) ([1]; Example 8, Fluorouracil (5-Fu) intraperitoneal injection 125 mg/kg single, CDK inhibitor oral 150 mg/kg single 7 h before, cycle 10 days): 60%
Relative remission rate (%) ([1]; Example 9, Fluorouracil (5-Fu) intraperitoneal injection 125 mg/kg single, CDK inhibitor oral 150 mg/kg single 8 h before, cycle 10 days): 60%
Relative remission rate (%) ([1]; Example 10, Fluorouracil (5-Fu) intraperitoneal injection 125 mg/kg single, CDK inhibitor oral 150 mg/kg single 9 h before, cycle 10 days): 50%
Relative remission rate (%) ([1]; Example 11, Fluorouracil (5-Fu) intraperitoneal injection 125 mg/kg single, CDK inhibitor oral 150 mg/kg single 10 h before, cycle 10 days): 60%
Relative remission rate (%) ([1]; Example 12, Fluorouracil (5-Fu) intraperitoneal injection 125 mg/kg single, CDK inhibitor oral 150 mg/kg single 11 h before, cycle 10 days): 70%
Relative remission rate (%) ([1]; Example 13, Fluorouracil (5-Fu) intraperitoneal injection 125 mg/kg single, CDK inhibitor oral 150 mg/kg single 12 h before, cycle 10 days): 80%
Relative remission rate (%) ([1]; Example 14, Fluorouracil (5-Fu) intraperitoneal injection 125 mg/kg single, CDK inhibitor oral 12.5 mg/kg single 13 h before, cycle 10 days): 40%
Relative remission rate (%) ([1]; Example 15, Fluorouracil (5-Fu) intraperitoneal injection 125 mg/kg single, CDK inhibitor oral 25 mg/kg single 13 h before, cycle 10 days): 80%
Relative remission rate (%) ([1]; Example 16, Fluorouracil (5-Fu) intraperitoneal injection 125 mg/kg single, CDK inhibitor oral 50 mg/kg single 13 h before, cycle 10 days): 60%
Relative remission rate (%) ([1]; Example 17, Fluorouracil (5-Fu) intraperitoneal injection 125 mg/kg single, CDK inhibitor oral 100 mg/kg single 13 h before, cycle 10 days): 80%
Relative remission rate (%) ([1]; Example 18, Fluorouracil (5-Fu) intraperitoneal injection 125 mg/kg single, CDK inhibitor oral 150 mg/kg single 13 h before, cycle 10 days): 80%
Relative remission rate (%) ([1]; Example 19, Fluorouracil (5-Fu) intraperitoneal injection 125 mg/kg single, CDK inhibitor oral 250 mg/kg single 13 h before, cycle 10 days): 60%
Relative remission rate (%) ([1]; Example 20, Fluorouracil (5-Fu) intraperitoneal injection 125 mg/kg single, CDK inhibitor oral 150 mg/kg single 14 h before, cycle 10 days): 70%
Relative remission rate (%) ([1]; Example 21, Fluorouracil (5-Fu) intraperitoneal injection 125 mg/kg single, CDK inhibitor oral 150 mg/kg single 16 h before, cycle 10 days): 60%
Relative remission rate (%) ([1]; Example 22, Fluorouracil (5-Fu) intraperitoneal injection 125 mg/kg single, CDK inhibitor oral 150 mg/kg single 18 h before, cycle 10 days): 60%
Relative remission rate (%) ([1]; Example 23, Fluorouracil (5-Fu) intraperitoneal injection 125 mg/kg single, CDK inhibitor oral 150 mg/kg single 20 h before, cycle 10 days): 50%
Relative remission rate (%) ([1]; Example 24, Fluorouracil (5-Fu) intraperitoneal injection 125 mg/kg single, CDK inhibitor oral 150 mg/kg single 22 h before, cycle 10 days): 40%
Relative remission rate (%) ([1]; Example 25, Fluorouracil (5-Fu) intraperitoneal injection 125 mg/kg single, CDK inhibitor oral 150 mg/kg single 24 h before, cycle 10 days): 40%
Relative remission rate (%) ([1]; Example 26, Fluorouracil (5-Fu) intraperitoneal injection 125 mg/kg single, CDK inhibitor oral 150 mg/kg single 48 h before, cycle 10 days): 0%
Relative remission rate (%) ([1]; Example 44, Fluorouracil (5-Fu) oral administration 250 mg/kg single, CDK inhibitor oral 125 mg/kg single 4 h before, cycle 10 days): 60%
Relative remission rate (%) ([1]; Example 88, Oxaliplatin intravenous injection 17.5 mg/kg single, CDK inhibitor oral 150 mg/kg single 6 h before, cycle 8 days): 50%
Relative remission rate (%) ([1]; Example 129, Irinotecan (CPT-11) intravenous injection 200 mg/kg single, CDK inhibitor oral 200 mg/kg single 14 h before, cycle 7 days): 60%
Relative remission rate (%) ([1]; Example 166, Docetaxel (DTX) intramuscular injection 20 mg/kg single, CDK inhibitor oral 150 mg/kg single 5 h before, cycle 8 days): 80%
Relative remission rate (%) ([1]; Example 228, Etoposide 60 mg/kg and Carboplatin 5 mg/kg intraperitoneal injection single, CDK inhibitor oral 150 mg/kg single, 12 h before, 10 days): 60%
Relative remission rate ([2]; Example 343, Etoposide intravenous injection 75 mg/kg single, CDK inhibitor intravenous injection 150 mg/kg single, 0.5 h before chemotherapeutic agent, cycle 8 days): 10%
Relative remission rate ([2]; Example 343, Etoposide intravenous injection 75 mg/kg single, CDK inhibitor oral 150 mg/kg single, 0.5 h before chemotherapeutic agent, cycle 8 days): 40%
Relative remission rate ([2]; Example 344, Etoposide intravenous injection 75 mg/kg single, CDK inhibitor intravenous injection 150 mg/kg single, 4 h before, cycle 8 days): 10%
Relative remission rate ([2]; Example 344, Etoposide intravenous injection 75 mg/kg single, CDK inhibitor oral 150 mg/kg single, 4 h before, cycle 8 days): 80%
Relative remission rate ([2]; Example 345, Etoposide intravenous injection 75 mg/kg single, CDK inhibitor intravenous injection 150 mg/kg single, 8 h before, cycle 8 days): 10%
Relative remission rate ([2]; Example 345, Etoposide intravenous injection 75 mg/kg single, CDK inhibitor oral 150 mg/kg single, 8 h before, cycle 8 days): 60%
Relative remission rate ([2]; Example 346, Etoposide intravenous injection 75 mg/kg single, CDK inhibitor intravenous injection 150 mg/kg single, 12 h before, cycle 8 days): 20%
Relative remission rate ([2]; Example 346, Etoposide intravenous injection 75 mg/kg single, CDK inhibitor oral 150 mg/kg single, 12 h before, cycle 8 days): 60%
Relative remission rate ([2]; Example 347, Etoposide intravenous injection 75 mg/kg single, CDK inhibitor intravenous injection 150 mg/kg single, 24 h before, cycle 8 days): 10%
Relative remission rate ([2]; Example 347, Etoposide intravenous injection 75 mg/kg single, CDK inhibitor oral 150 mg/kg single, 24 h before, cycle 8 days): 60%
Relative remission rate ([2]; Example 357, Etoposide and cisplatin intravenous injection 50 (E) 5 (Cis) mg/kg single, CDK inhibitor intravenous injection 125 mg/kg single, 4 h before, cycle 7 days): 20%
Relative remission rate ([2]; Example 357, Etoposide and cisplatin intravenous injection 50 (E) 5 (Cis) mg/kg single, CDK inhibitor oral 125 mg/kg single, 4 h before, cycle 7 days): 70%
Relative remission rate ([2]; Example 358, Etoposide and cisplatin intravenous injection 50 (E) 5 (Cis) mg/kg single, CDK inhibitor intravenous injection 125 mg/kg single, 24 h before, cycle 7 days): 10%
Relative remission rate ([2]; Example 358, Etoposide and cisplatin intravenous injection 50 (E) 5 (Cis) mg/kg single, CDK inhibitor oral 125 mg/kg single, 24 h before, cycle 7 days): 40%
Relative remission rate ([2]; Example 366, Carboplatin (CBP) oral administration 200 mg/kg single, CDK inhibitor intravenous injection 150 mg/kg single, 24 h before, cycle 10 days): 10%
Relative remission rate ([2]; Example 366, Carboplatin (CBP) oral administration 200 mg/kg single, CDK inhibitor oral 150 mg/kg single, 24 h before, cycle 10 days): 50%
Relative remission rate ([2]; Example 378, Gemcitabine (GEM) intravenous injection 120 mg/kg single, CDK inhibitor intravenous injection 200 mg/kg single, 12 h before, cycle 8 days): 10%
Relative remission rate ([2]; Example 378, Gemcitabine (GEM) intravenous injection 120 mg/kg single, CDK inhibitor oral 200 mg/kg single, 12 h before, cycle 8 days): 50%
Relative remission rate ([2]; Example 379, Gemcitabine (GEM) intravenous injection 120 mg/kg single, CDK inhibitor intravenous injection 200 mg/kg single, 12 h before, cycle 8 days): 20%
Relative remission rate ([2]; Example 379, Gemcitabine (GEM) intravenous injection 120 mg/kg single, CDK inhibitor oral 200 mg/kg single, 12 h before, cycle 8 days): 60%
Relative remission rate of other administration mode ([3]; Example 382, Docetaxel (DTX) intraperitoneal injection 10 mg/kg single, CDK inhibitor intraperitoneal injection 150 mg/kg single, 0.5 h before): 10%
Relative remission rate of oral administration ([3]; Example 382, Docetaxel (DTX) intraperitoneal injection 10 mg/kg single, CDK inhibitor oral 150 mg/kg single, 0.5 h before): 40%
Relative remission rate of other administration mode ([3]; Example 383, Docetaxel (DTX) intraperitoneal injection 10 mg/kg single, CDK inhibitor intraperitoneal injection 150 mg/kg single, 4 h before): 10%
Relative remission rate of oral administration ([3]; Example 383, Docetaxel (DTX) intraperitoneal injection 10 mg/kg single, CDK inhibitor oral 150 mg/kg single, 4 h before): 40%
Relative remission rate of other administration mode ([3]; Example 384, Docetaxel (DTX) intraperitoneal injection 10 mg/kg single, CDK inhibitor intraperitoneal injection 150 mg/kg single, 8 h before): 10%
Relative remission rate of oral administration ([3]; Example 384, Docetaxel (DTX) intraperitoneal injection 10 mg/kg single, CDK inhibitor oral 150 mg/kg single, 8 h before): 50%
Relative remission rate of other administration mode ([3]; Example 385, Docetaxel (DTX) intraperitoneal injection 10 mg/kg single, CDK inhibitor intraperitoneal injection 150 mg/kg single, 12 h before): 20%
Relative remission rate of oral administration ([3]; Example 385, Docetaxel (DTX) intraperitoneal injection 10 mg/kg single, CDK inhibitor oral 150 mg/kg single, 12 h before): 70%
Relative remission rate of other administration mode ([3]; Example 386, Docetaxel (DTX) intraperitoneal injection 10 mg/kg single, CDK inhibitor intraperitoneal injection 150 mg/kg single, 24 h before): 10%
Relative remission rate of oral administration ([3]; Example 386, Docetaxel (DTX) intraperitoneal injection 10 mg/kg single, CDK inhibitor oral 150 mg/kg single, 24 h before): 50%
Relative remission rate of other administration mode ([3]; Example 403, Gemcitabine (GEM) intravenous injection 120 mg/kg single, CDK inhibitor intravenous injection 200 mg/kg single, 12 h before): 20%
Relative remission rate of oral administration ([3]; Example 403, Gemcitabine (GEM) intravenous injection 120 mg/kg single, CDK inhibitor oral 200 mg/kg single, 12 h before): 60%
